# Assay results reported in patent US11981661B2, “Heterocyclic compounds” (Hoffmann-La Roche Inc., priority 2020, dated 2024).
# Target: T1, MAGL (Homo sapiens, UniProt Q99685)
# T1 sequence (Q99685 1-303): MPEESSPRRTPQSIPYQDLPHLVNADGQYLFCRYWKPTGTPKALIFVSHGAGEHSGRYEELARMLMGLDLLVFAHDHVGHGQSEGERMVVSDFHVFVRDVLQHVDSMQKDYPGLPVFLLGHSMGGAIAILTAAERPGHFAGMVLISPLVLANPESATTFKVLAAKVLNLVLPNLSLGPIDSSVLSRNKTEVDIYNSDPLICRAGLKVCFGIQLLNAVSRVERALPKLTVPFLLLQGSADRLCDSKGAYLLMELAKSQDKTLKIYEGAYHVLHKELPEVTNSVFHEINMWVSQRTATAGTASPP
# Test: 2-AG assay (MAGL inhibitory activity, hydrolysis of 2-arachidonoylglycerol followed by mass spectrometry)
# Assay type: biochemical
# Settings: 50 pM MAGL, 8 μM 2-arachidonoylglycerol, 15 min preincubation, 30 min incubation at RT, concentration range 12.5 μM to 0.8 pM
# Procedure: Compounds were profiled for MAGL inhibitory activity by determining the enzymatic activity by following the hydrolysis of the natural substrate 2-arachidonoylglycerol resulting in arachidonic acid, which can be followed by mass spectrometry. This assay is hereinafter abbreviated “2-AG assay”.
# The 2-AG assay was carried out in 384 well assay plates (PP, Greiner Cat #784201) in a total volume of 20 μL. Compound dilutions were made in 100% DMSO (VWR Chemicals 23500.297) in a polypropylene plate in 3-fold dilution steps to give a final concentration range in the assay from 12.5 μM to 0.8 pM. 0.25 μL compound dilutions (100% DMSO) were added to 9 μL MAGL in assay buffer (50 mM TRIS (GIBCO, 15567-027), 1 mM EDTA (Fluka, 03690-100 mL), 0.01% (v/v) Tween. After shaking, the plate was incubated for 15 min at RT. To start the reaction, 10 μL 2-arachidonoylglycerol in assay buffer was added. The final concentrations in the assay was 50 pM MAGL and 8 μM 2-arachidonoylglyerol. After shaking and 30 min incubation at RT, the reaction was quenched by the addition of 40 μL of ACN containing 4 μM of d8-arachidonic acid. The amount of arachidonic acid was traced by an online SPE system (Agilent Rapidfire) coupled to a triple quadrupole mass spectrometer (Agilent 6460). A C18 SPE cartridge (G9205A) was used in an ACN/water liquid setup. The mass spectrometer was operated in negative electrospray mode following the mass transitions 303.1→259.1 for arachidonic acid and 311.1→267.0 for d8-arachidonic acid. The activity of the compounds was calculated based on the ratio of intensities [arachidonic acid/d8-arachidonic acid].
row,IC50 [µM],Compound
1,0.321,"O=C(CCCc1cnn[nH]1)N1CC(c2ccc(N3CCC(C(F)(F)F)C3)nc2)C1 (racemic) [Example 45, rac-4-(1H-Triazol-5-yl)-1-[3-[6-[3-(trifluoro-methyl)pyrrolidin-1-yl]-3-pyridyl]azetidin-1-yl]butan-1-one]"
2,2.58,"O=C1CCC(CCC(=O)N2CC(c3ccc(CC(F)(F)F)cc3)C2)N1 (single isomer, unassigned) [Example 7, (−)- or (+)-5-[3-Oxo-3-[3-[4-(2,2,2-trifluoroethyl)phenyl]azetidin-1-yl]propyl]pyrrolidin-2-one]"
3,0.026,"O=C1CCC(CCC(=O)N2CC(c3ccc(CC(F)(F)F)cc3)C2)N1 (single isomer, unassigned) [Example 8, (+)- or (−)-5-[3-Oxo-3-[3-[4-(2,2,2-trifluoroethyl)phenyl]azetidin-1-yl]propyl]pyrrolidin-2-one]"
4,≥ 12.5,"CC1(CCC(=O)N2CC(OCc3ccc(C(F)(F)F)cc3F)C2)CCC(=O)N1 (single isomer, unassigned) [Example 13, (−)- or (+)-5-[3-[3-[[2-Fluoro-4-(trifluoromethyl)phenyl]methoxy]azetidin-1-yl]-3-oxo-propyl]-5-methyl-pyrrolidin-2-one]"
5,≥ 12.5,"CC1(CCC(=O)N2CC(c3ccc(C4(C(F)(F)F)CC4)cc3)C2)CCC(=O)N1 (single isomer, unassigned) [Example 15, (−)- or (+)-5-Methyl-5-[3-oxo-3-[3-[4-[1-(trifluoromethyl)cyclopropyl]phenyl]azetidin-1-yl]propyl]pyrrolidin-2-one]"
6,0.213,"CC1(CCC(=O)N2CC(c3ccc(C4(C(F)(F)F)CC4)cc3)C2)CCC(=O)N1 (single isomer, unassigned) [Example 16, (+)- or (−)-5-Methyl-5-[3-oxo-3-[3-[4-[1-(trifluoromethyl)cyclopropyl]phenyl]azetidin-1-yl]propyl]pyrrolidin-2-one]"
7,≥ 12.5,"CC1(CCC(=O)N2CC(c3ccc(Oc4cccc(Cl)c4)nc3)C2)CCC(=O)N1 (single isomer, unassigned) [Example 17, (−)- or (+)-5-[3-[3-[6-(3-Chlorophenoxy)-3-pyridyl]azetidin-1-yl]-3-oxo-propyl]-5-methyl-pyrrolidin-2-one]"
8,2.67,"CC1(CCC(=O)N2CC(c3ccc(Oc4cccc(Cl)c4)nc3)C2)CCC(=O)N1 (single isomer, unassigned) [Example 18, (+)- or (−)-5-[3-[3-[6-(3-Chlorophenoxy)-3-pyridyl]azetidin-1-yl]-3-oxo-propyl]-5-methyl-pyrrolidin-2-one]"
9,0.044,"CS(=O)(=O)c1ccc(C(c2ccccc2)C2CCN(C(=O)CC[C@@H]3COC(=O)N3)CC2)cc1 (single isomer, unassigned) [Example 83, (+)- or (−)-(4R)-4-[3-[4-[(4-Methyl-sulfonylphenyl)-phenyl-methyl]-1-piperidyl]-3-oxo-propyl]oxazolidin-2-one]"
10,0.294,"CS(=O)(=O)c1ccc(C(c2ccccc2)C2CCN(C(=O)CC[C@@H]3COC(=O)N3)CC2)cc1 (single isomer, unassigned) [Example 84, (−)- or (+)-(−)-(4R)-4-[3-[4-[(4-Methyl-sulfonylphenyl)-phenyl-methyl]-1-piperidyl]-3-oxo-propyl]oxazolidin-2-one]"
11,0.054,"O=C1NC(COC(=O)N2CC(c3ccc(N4CCC(C(F)(F)F)C4)nc3)C2)CO1 (single isomer, unassigned) [Example 86, (−)- or (+)-[(4S)-2-Oxooxazolidin-4-yl]methyl 3-[6-[3-(trifluoromethyl)pyrrolidin-1-yl]-3-pyridyl]azetidine-1-carboxylate]"
12,0.032,"O=C1NC(COC(=O)N2CC(c3ccc(N4CCC(C(F)(F)F)C4)nc3)C2)CO1 (single isomer, unassigned) [Example 87, (+)- or (−)-[(4S)-2-Oxooxazolidin-4-yl]methyl 3-[6-[3-(trifluoromethyl)pyrrolidin-1-yl]-3-pyridyl]azetidine-1-carboxylate]"
13,0.001,"O=C1N[C@H](CCC(=O)N2CC(c3ccc([C@H]4CC[C@@H](C(F)(F)F)CC4)nc3)C2)CO1 (single isomer, unassigned) [Example 200]"
14,0.009,"O=C1N[C@H](CCC(=O)N2CC(c3ccc([C@H]4CC[C@H](C(F)(F)F)CC4)nc3)C2)CO1 (single isomer, unassigned) [Example 201]"
15,0.098,"O=C1N[C@H](CCC(=O)N2CC(c3ccc(N4CCC(O)(C(F)(F)F)C4)nc3)C2)CO1 (single isomer, unassigned) [Example 204, (−)- or (+)-(4R)-4-[3-[3-[6-[3-Hydroxy-3-(trifluoromethyl)pyrrolidin-1-yl]-3-pyridyl]azetidin-1-yl]-3-oxo-propyl]oxazolidin-2-one]"
16,0.016,"O=C1N[C@H](CCC(=O)N2CC(c3ccc(N4CCC(C(F)(F)F)C4)nc3)C2)CO1 (single isomer, unassigned) [Example 206]"
17,0.138,"O=C1N[C@H](CCC(=O)N2CC(c3cnc(N4CCC(C(F)(F)F)C4)nc3)C2)CO1 (single isomer, unassigned) [Example 208, (−)- or (+)-(4R)-4-[3-Oxo-3-[3-[2-[3-(trifluoromethyl)pyrrolidin-1-yl]pyrimidin-5-yl]azetidin-1-yl]propyl]oxazolidin-2-one]"
18,0.131,"O=C1NC(CCC(=O)N2CC(c3cnc(N4CCC(C(F)(F)F)C4)nc3)C2)CO1 (single isomer, unassigned) [Example 209, (+)- or (−)-(4R)-4-[3-Oxo-3-[3-[2-[3-(trifluoromethyl)pyrrolidin-1-yl]pyrimidin-5-yl]azetidin-1-yl]propyl]oxazolidin-2-one]"
19,0.059,"O=C1N[C@H](CCC(=O)N2CC3(CCC(Cc4ccc(C(F)(F)F)nc4)C3)C2)CO1 (single isomer, unassigned) [Example 210, (−)- or (+)-(4R)-4-[3-Oxo-3-[6-[[6-(trifluoromethyl)-3-pyridyl]methyl]-2-azaspiro[3.4]octan-2-yl]propyl]oxazolidin-2-one]"
20,0.084,"O=C1NC(CCC(=O)N2CC3(CCC(Cc4ccc(C(F)(F)F)nc4)C3)C2)CO1 (single isomer, unassigned) [Example 211, (+)- or (−)-(4R)-4-[3-Oxo-3-[6-[[6-(trifluoromethyl)-3-pyridyl]methyl]-2-azaspiro[3.4]octan-2-yl]propyl]oxazolidin-2-one]"
21,0.033,"CS(=O)(=O)c1cc(Cl)ccc1-c1ccc(C2CN(C(=O)CCC3CNC(=O)N3)C2)cc1 (single isomer, unassigned) [Example 217, (−)- or (+)-4-[3-[3-[4-(4-Chloro-2-methylsulfonyl-phenyl)phenyl]azetidin-1-yl]-3-oxo-propyl]imidazolidin-2-one]"
22,1.21,"CS(=O)(=O)c1cc(Cl)ccc1-c1ccc(C2CN(C(=O)CCC3CNC(=O)N3)C2)cc1 (single isomer, unassigned) [Example 218, (+)- or (−)-4-[3-[3-[4-(4-Chloro-2-methylsulfonyl-phenyl)phenyl]azetidin-1-yl]-3-oxo-propyl]imidazolidin-2-one]"
23,0.019,"O=C1CCC(CCC(=O)N2CC(OCc3ccc(C(F)(F)F)cc3F)C2)N1 (single isomer, unassigned; (+)) [Example 2, (+)-5-[3-[3-[[2-Fluoro-4-(trifluoromethyl)phenyl]methoxy]azetidin-1-yl]-3-oxo-propyl]pyrrolidin-2-one]"
24,0.005,"CC(C)(C)c1ccc(C2CN(C(=O)CCC3CCC(=O)N3)C2)cc1 (single isomer, unassigned; (+)) [Example 4, (+)-5-[3-[3-(4-tert-Butylphenyl)azetidin-1-yl]-3-oxo-propyl]pyrrolidin-2-one]"
25,0.003,"O=C1CCC(CCC(=O)N2CC(c3ccc(C4(C(F)(F)F)CC4)cc3)C2)N1 (single isomer, unassigned; (+)) [Example 6, (+)-5-[3-Oxo-3-[3-[4-[1-(trifluoromethyl)cyclopropyl]phenyl]azetidin-1-yl]propyl]pyrrolidin-2-one]"
26,0.005,"O=C1CCC(CCC(=O)N2CC(c3ccc(-c4ccc(F)cc4F)cc3)C2)N1 (single isomer, unassigned; (+)) [Example 10, (+)-5-[3-[3-[4-(2,4-Difluorophenyl)phenyl]azetidin-1-yl]-3-oxo-propyl]pyrrolidin-2-one]"
27,2.31,"O=C1CCC(CCC(=O)N2C[C@@H]3CN(Cc4ccc(C(F)(F)F)cc4F)C[C@H]3C2)N1 (single isomer, unassigned; (+)) [Example 12]"
